Earlier results as cited in patent US5331009A, “Pharmaceutical compositions for treating adrenoleukodystrophy” (Croda International plc, priority 1988, dated 1994).

System: ALD patients

| SMILES | therapeutic benefit of administration to ALD patients (Rizzo, Neurology 36 (1986) 357, Moser, Ann. Neurol. 21, 1987) | C26:0 body levels (very long chain fatty acids omitted from diet, glyceryl trioleate used alone) |
| --- | --- | --- |
| CCCCCCCC/C=C\CCCCCCCC(=O)O [oleic acid (C18:1), oleic acid] | generally therapeutically advantageous |  |
| CCCCCCCC/C=C\CCCCCCCC(=O)OCC(COC(=O)CCCCCCC/C=C\CCCCCCCC)OC(=O)CCCCCCC/C=C\CCCCCCCC [glyceryl trioleate] |  | reductions can occur |
